Experimental findings from patent publication US7405223B2, “Treating allergic and inflammatory conditions” (priority 2000, dated 2008) are described below.

Data set [1] can be described thus: clinical. As to conditions: human, plasma, po, 7.5 mg, Day 14, 7.5 mg once daily oral; for Cmax: mean (% CV); for half-life: t1/2, mean (% CV).
A short description of data set [2]: clinical. The conditions noted are these: both, human, plasma, po, 5 mg.
For data set [3] the following is noted: log-transformed values, 7.5 mg once daily.
Data set [4] has as its system seasonal allergic rhinitis patients. Put plainly: Double-blinded, randomized clinical trials in seasonal allergic rhinitis patients.
Setting [5] is: Day 10, DL 5 mg once daily oral.
Setting [6] is: steady state, Day 10, DL 5 mg once daily oral.

Marks after values point to notes of the source that are not given here.

The term Cmax denotes the highest concentration seen after dosing. Usually half-life stands for the time in which the quantity being followed falls by half. In the data set “clinical [1]” (female, Black women), `Clc1ccc2c(c1)CCc1cccnc1C2=C1CCNCC1` [desloratadine] showed a Cmax of 6.73 ng/mL and a half-life of 35.4 h. In the data set “clinical [1]” (female, White women), this compound showed a Cmax of 5.46 ng/mL and a half-life of 29.9 h. In the data set “clinical [1]” (male, White men), this compound gave a Cmax of 6.05 ng/mL and a half-life of 36 h. In addition, the half-life in “clinical [1]” (male, Black men) was 42 h. In the data set “clinical [2]”, the concentration at 8 day was 1.31 ng/mL and the concentration at 9 day was determined as 1.33 ng/mL. For the same compound, in data set [3], the “AUC higher in female subjects compared with male subjects” value came out at 3% and the “Cmax higher in female subjects compared with male subjects” value is 10%. For the same compound, under “5 mg once daily for 10 days”, the “increase in t1/2 in elderly subjects >=65 years old compared with younger subjects” value is on record as about 30%. In addition, in data set [4] (5 mg), the “reduction of nasal symptoms versus placebo” value is listed as “significantly (p<0.01) more effective than placebo”. Besides, the total symptom scores entry in data set [4] (5 mg once daily) is listed as “significantly reduced”. The “AM NOW total symptom score” value in data set [4] (24 hours after dose, entire 5 mg to 20 mg dosage range) is recorded as “Statistically significant (p<0.05) reductions were maintained for the full 24 hour dosing interval”. Further, the “differences in effectiveness across subgroups defined by gender, age, or race” value in data set [4] (entire 5 mg to 20 mg dosage range) was “no significant differences”.
As for `Oc1cnc2c(c1)CCc1cc(Cl)ccc1C2=C1CCNCC1` [3-OH desloratadine, 3-hydroxydesloratadine], under setting [5], the “t1/2, arithmetic mean” value was determined as 36.0 h and the “t1/2, harmonic mean” value was 34.0^c hr. Further, under setting [6], the “AUC(0-24 hr), arithmetic mean” value is 32.3 ng·h/mL; the “AUC(0-24 hr), geometric mean” value was determined as 30.4 ng·h/mL; the “Cmax, arithmetic mean” value was determined as 1.99 ng/mL; the “Cmax, geometric mean” value was 1 .87 ng/mL. Further, under setting [6], the “Tmax, arithmetic mean” value stood at 4.76 h and the “Tmax, median (geometric mean)” value was 5 h.
